Reference: patent US9861625B2, “Methods and compositions for treating cancer through inhibition of PI3K” (Duke University, priority 2014, dated 2018)
Like-named read-outs stand apart in the source and are kept apart here.

Experiments:
Assay in all cases: MTT cell viability assay
Assay type in all cases: cell-based
[1] = tested on: H929; details: Homo sapiens, NCI-H929; H929, Multiple Myeloma, RPMI 10% FBS
Text: (§1) A total of 60 cell lines representative of different cancer types were obtained from the ATCC and grown and maintained in accordance with the provided guidelines. The cell lines represented the following distinct histologies: mantle cell lymphoma (5 lines: JVM13, Rec1, Mino, JVM2, Jeko); germinal center B-cell derived (“GCB”) DLBCL (19 lines: Farage, BJAB, Ly1, Ly2, Ly7, Ly8, Ly19, HBL2, HT, Karpas422, Pfeiffer, RCK8, RL, Sci-1, Ski, SUDHL4, SUDHL7, Toledo, WSU-NHL); primary mediastinal B-cell lymphoma (“PMBL”) (3 lines: K1106, MEDB1, U2940); Burkitt lymphoma (11 lines: Daudi, CA46, EB1, EB2, EB3, Jijoye, Raji, Ramos, Namwala, BL2, BL41); Hodgkin lymphoma (3 lines: RMPI6666, L1236, L428); activated B-cell derived (“ABC”) DLBCL (6 lines: Ly3, HBL1, TMD8, Ly10, Riva, U2932); multiple myeloma (6 lines: U266, SKMM1, RPMI8226, KMS12, IM9, H929); acute myelogenous leukemia (“AML”) (2 lines: U937, KG1); acute lymphoblastic leukemia (“ALL”) (2 lines: Reh, SR); and T-cell lymphoma (3 lines: Molt4, RPMI8402, Jurkat). The cell lines were tested within six months after resuscitation.
(§2) The 3-(4,5-dimethylthiazol-2-yl)-2,5-diphenyltetrazolium bromide (MTT) cell viability assay was used to determine cell viability in response to drug treatment. Five replicates per concentration tested were carried out in serial dilutions with a total of ten concentrations with a 50% reduction in drug concentration per dilution for each plate. A total of 15 μl of MTT reagent was added to each drug-treated well and incubated for three hours in 37° C. Detergent was added to each drug-treated well and incubated overnight at room temperature without exposure to light. Absorbance was measured at 570 nm using a plate reader from Tecan Group. The IC50 concentration was determined using the publicly available ED50 plus v1.0 software program.

[2] = tested on: RCK8; details: Homo sapiens; RCK8, GCB DLBCL, RPMI 15% FBS
Text: as §1, §2

[3] = tested on: Ramos; details: Homo sapiens, Burkitt Lymphoma, RPMI 10% FBS
Text: as §1, §2

[4] = tested on: LY7; details: LY7, GCB DLBCL, OCI
Text: as §1, §2

[5] = tested on: KG1; details: Homo sapiens, KG-1; KG1, AML, IMDM 20% FBS
Text: as §1, §2

[6] = tested on: SUDHL4; details: Homo sapiens, SU-DHL-4; SUDHL4, GCB DLBCL, RPMI 15% FBS
Text: as §1, §2

[7] = tested on: Farage; details: GCB DLBCL, RPMI 10% FBS
Text: as §1, §2

[8] = tested on: CA46; details: Homo sapiens; CA46, Burkitt Lymphoma, RPMI 10% FBS
Text: as §1, §2

[9] = tested on: Karpas422; details: Homo sapiens, KARPAS-422; Karpas422, GCB DLBCL, RPMI 10% FBS
Text: as §1, §2

[10] = tested on: LY10; details: LY10, ABC DLBCL, OCI
Text: as §1, §2

[11] = tested on: SUDHL7; details: SUDHL7, GCB DLBCL, RPMI 15% FBS
Text: as §1, §2

[12] = tested on: U937; details: Homo sapiens, U-937; U937, AML, RPMI 10% FBS
Text: as §1, §2

[13] = tested on: TMD8; details: Homo sapiens; TMD8, ABC DLBCL, MEM-α 10% FBS
Text: as §1, §2

[14] = tested on: MEDB1; details: MEDB1, PMBL, RPMI 10% FBS
Text: as §1, §2

[15] = tested on: Jeko; details: MantleCellLymphoma, RPMI 10% FBS
Text: as §1, §2

[16] = tested on: IM9; details: Homo sapiens, IM-9; IM9, Multiple Myeloma, RPMI 10% FBS
Text: as §1, §2

[17] = tested on: Raji; details: Homo sapiens, Burkitt Lymphoma, RPMI 10% FBS
Text: as §1, §2

[18] = tested on: EB1; details: EB1, Burkitt Lymphoma, RPMI 10% FBS
Text: as §1, §2

[19] = tested on: Jijoye; details: Burkitt Lymphoma, RPMI 10% FBS
Text: as §1, §2

[20] = tested on: RL; details: Homo sapiens, GCB DLBCL, RPMI 10% FBS
Text: as §1, §2

[21] = tested on: Rec1; details: Homo sapiens; Rec1, MantleCellLymphoma, RPMI 10% FBS
Text: as §1, §2

[22] = tested on: BJAB; details: Homo sapiens
Text: as §1, §2

[23] = tested on: LY19; details: LY19, GCB DLBCL, OCI
Text: as §1, §2

[24] = tested on: BL41; details: Homo sapiens, BL-41; BL41, Burkitt Lymphoma, RPMI 10% FBS
Text: as §1, §2

[25] = tested on: BL2; details: BL2, Burkitt Lymphoma, RPMI 10% FBS
Text: as §1, §2

[26] = tested on: EB2; details: Homo sapiens; EB2, Burkitt Lymphoma, RPMI 10% FBS
Text: as §1, §2

[27] = tested on: Reh; details: Homo sapiens, ALL, RPMI 10% FBS
Text: as §1, §2

[28] = tested on: LY3; details: LY3, ABC DLBCL, OCI
Text: as §1, §2

[29] = tested on: Molt 4; details: Homo sapiens; Molt 4, T-cell, RPMI 10% FBS
Text: as §1, §2

[30] = BJAB, GCB DLBCL, RPMI 10% FBS, read-out: IC50

| SMILES | IC50 [1] [nM] | IC50 [2] [nM] | IC50 [4] [nM] | IC50 [5] [nM] | IC50 [6] [nM] | IC50 [7] [nM] | IC50 [8] [nM] | IC50 [9] [nM] | IC50 [12] [nM] | IC50 [13] [nM] | IC50 [14] [nM] | IC50 [15] [nM] | IC50 [16] [nM] | IC50 [17] [nM] | IC50 [18] [nM] | IC50 [19] [nM] | IC50 [20] [nM] | IC50 [21] [nM] | IC50 [22, 30] [nM] | IC50 [23] [nM] | further results |
| --- | --- | --- | --- | --- | --- | --- | --- | --- | --- | --- | --- | --- | --- | --- | --- | --- | --- | --- | --- | --- | --- |
| Cn1c(=O)n(-c2ccc(C(C)(C)C#N)cc2)c2c3cc(-c4cnc5ccccc5c4)ccc3ncc21 [BEZ235] | 113 | 20 | 257 | 79.9 | 60.8 | 509 | 28.4 | 22 | 15 | 118 | 1830 | 51 | 4500 | 300 | 22.6 | 140 | 26 | 82.3 | 26.9 | 224 | IC50 [3]: 51 nM; IC50 [10]: 9390 nM; IC50 [11]: 22.2 nM; IC50 ([22]; BJAB cells, read-out: IC50 concentration): 26.9 nM; IC50 ([22]; BJAB cells, read-out: observed IC50): 26.9 nM; IC50 [24]: 11.6 nM; IC50 [25]: 49.9 nM; IC50 [26]: 70.2 nM; IC50 [27]: 484 nM; IC50 [28]: 80 nM; IC50 [29]: 168 nM |
| COc1ccc(-c2ccc3ncc4c(c3c2)n(-c2ccc(N3CCNCC3)c(C(F)(F)F)c2)c(=O)n4C)cn1 [BGT226] | 3.6 | 21.8 | 20.4 | 25.1 | 51.3 | 162 | 27.6 | 85.3 | 11.2 | 101 | 49.7 | 16.6 | 201 | 79.8 | 71.6 | 13.1 | 64.1 | 35.9 | 8.5 | 33.3 | IC50 [26]: 199 nM; IC50 [27]: 13.4 nM; IC50 [28]: 20.4 nM; IC50 [29]: 8 nM |
| Nc1cc(C(F)(F)F)c(-c2cc(N3CCOCC3)nc(N3CCOCC3)n2)cn1 [BKM120] | 1200 | 3260 | 2550 | 724 | 1110 | 752 | 729 | 2080 | 895 | 764 | 7790 | 752 | 575 | 2310 | 1070 | 2740 | 2600 | 776 | 1470 | 1890 | IC50 [3]: 1040 nM; IC50 [10]: 1520 nM; IC50 [11]: 233 nM; IC50 [24]: 5030 nM; IC50 [25]: 722 nM; IC50 [26]: 1070 nM; IC50 [27]: 1020 nM; IC50 [28]: 893 nM; IC50 [29]: 1110 nM |
